# Tests used:
# AChE (from electric eel) = molecular target: T1, AChE (from electric eel) (Electrophorus electricus, UniProt O42275); test: biochemical; conditions: for IC50: AChE from electric eel, mean ± SD of three experiments, read-out: AChE Inhibition (IC50)
# T1 construct: AChE (from electric eel); purchased Sigma Chemical Company (St. Louis, MO, USA)
# Description: (§1) The ChE inhibitory activity of the test compounds was determined using the modified Ellman’s method. The compounds were dissolved in DMSO (10 mmol/L) and then diluted with PB (phosphate buffer) solution to attain a range of final concentrations. […] Briefly, 100 μL of different concentrations of the test or standard compounds and 100 μL of AChE/BuChE (0.5 U/mL) were added into 48-well plates and then co-incubated at 37 °C for 30 min. […] All concentrations mentioned are final.
# [1] = molecular target: T2, BuChE (from equine serum) (Equus caballus, UniProt P81908); test: biochemical; conditions: mean ± SD of three experiments, read-out: BuChE Inhibition (IC50)
# T2 construct: BuChE (from equine serum); purchased Sigma Chemical Company (St. Louis, MO, USA); host or cells: equine serum
# Description: as §1
# H2O2-induced PC12 cells = test: Neuroprotection against H2O2-induced PC12 cell injury (MTT); assay type: cell-based; conditions: H2O2 250 μM, mean ± SEM
# Description: Neuroprotection assay is similar to cytotoxicity. Oxidative cellular damage caused by H2O2 has become one of the important methods to study oxidative damage in neural cells. PC12 cells were seeded into a 96-well plate at a density of 5.0 × 10^3 cells per well. After the cells were incubated overnight, the old medium was discarded. […] After incubating overnight, 20 μL of MTT solution (5 mg/mL, Sigma-Aldrich) was added per well, and the cells were incubated for an additional 4 h. Afterwards, the supernatant was removed and 150 μL of DMSO was added. The 96-well plate was placed on the shaker for 10–15 min, and then the absorbance at 492 nm was measured by a microplate reader.
# PC12 cells = test: Cytotoxicity in PC12 cells (MTT); assay type: cell-based
# Description: The cytotoxicity and neuroprotective effects of the compounds on PC12 cells were evaluated by MTT assay. PC12 cells were seeded into a 96-well plate at a density of 5.0 × 10^3 cells per well. After the cells were incubated overnight, the old medium was discarded. The cells were incubated for another 24 h with fresh medium containing compounds at a concentration of 30 or 50 μM. A total of 20 μL of MTT solution (5 mg/mL, Sigma-Aldrich, Shanghai, China) was then added per well, and the cells were incubated for an additional 4 h. Afterwards, the supernatant was removed and 150 μL of DMSO was added to solubilize formazan crystals. The 96-well plate was placed on the shaker for 10–15 min, and then the absorbance at 492 nm was measured by a microplate reader.
# T2 sequence (P81908 whole entry): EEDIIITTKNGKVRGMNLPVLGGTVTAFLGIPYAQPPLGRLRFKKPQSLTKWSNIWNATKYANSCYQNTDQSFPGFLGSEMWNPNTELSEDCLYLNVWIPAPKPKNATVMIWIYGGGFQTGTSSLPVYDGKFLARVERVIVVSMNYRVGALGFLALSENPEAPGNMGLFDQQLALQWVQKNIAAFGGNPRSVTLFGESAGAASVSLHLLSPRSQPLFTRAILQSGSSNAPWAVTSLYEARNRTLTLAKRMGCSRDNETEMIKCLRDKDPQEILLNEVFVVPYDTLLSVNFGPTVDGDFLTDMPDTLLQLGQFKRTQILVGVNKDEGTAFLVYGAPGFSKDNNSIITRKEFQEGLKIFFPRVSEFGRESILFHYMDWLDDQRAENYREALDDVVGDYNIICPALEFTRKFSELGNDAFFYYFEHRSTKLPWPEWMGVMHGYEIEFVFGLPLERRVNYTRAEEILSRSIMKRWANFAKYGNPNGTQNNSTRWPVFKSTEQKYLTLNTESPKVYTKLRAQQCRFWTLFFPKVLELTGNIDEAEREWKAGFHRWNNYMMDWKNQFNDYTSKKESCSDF
# T1 sequence (O42275 24-633): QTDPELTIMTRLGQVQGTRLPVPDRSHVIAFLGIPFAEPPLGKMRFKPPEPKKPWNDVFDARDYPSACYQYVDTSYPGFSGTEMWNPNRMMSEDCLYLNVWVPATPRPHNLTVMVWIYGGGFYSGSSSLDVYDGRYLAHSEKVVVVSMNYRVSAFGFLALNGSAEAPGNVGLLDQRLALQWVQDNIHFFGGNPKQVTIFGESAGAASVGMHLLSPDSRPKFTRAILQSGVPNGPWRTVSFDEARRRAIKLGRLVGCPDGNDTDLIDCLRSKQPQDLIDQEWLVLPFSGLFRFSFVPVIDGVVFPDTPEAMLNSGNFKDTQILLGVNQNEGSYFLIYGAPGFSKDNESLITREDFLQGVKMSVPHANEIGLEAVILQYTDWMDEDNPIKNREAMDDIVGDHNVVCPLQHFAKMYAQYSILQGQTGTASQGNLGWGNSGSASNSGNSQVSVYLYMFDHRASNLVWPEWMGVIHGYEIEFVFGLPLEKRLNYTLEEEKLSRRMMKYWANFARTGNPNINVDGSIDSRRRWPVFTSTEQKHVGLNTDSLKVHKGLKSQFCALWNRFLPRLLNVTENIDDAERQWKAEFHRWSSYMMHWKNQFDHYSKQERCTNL
SMILES,IC50 (AChE (from electric eel)),IC50 [1],H2O2-Induced PC12 Cell Viability (% of Control) (H2O2-induced PC12 cells; compound 10 μM),H2O2-Induced PC12 Cell Viability (% of Control) (H2O2-induced PC12 cells; compound 30 μM),Cell Viability (% of Control) (PC12 cells; compound 30 μM),Cell Viability (% of Control) (PC12 cells; compound 50 μM),"Selective Index, IC50 (BChE)/IC50 (AChE) (AChE (from electric eel); AChE selectivity index)"
COc1ccc(S(=O)(=O)Nc2ccc3c(c2)C(=O)c2nc4ccccc4c(=O)n2-3)c(OC)c1 [4l],18.6 ± 1.77 µM,> 50 µM,36.35 ± 1.6 % of Control,39.84 ± 2.8 % of Control,100.2 ± 3.1 % of Control,99.8 ± 2.7 % of Control,–
O=C1c2cc(NS(=O)(=O)c3ccc(OC(F)(F)F)cc3)ccc2-n2c1nc1ccccc1c2=O [4m],7.75 ± 0.21 µM,10.2 ± 1.24 µM,37.89 ± 4.3 % of Control,44.98 ± 2.5 % of Control,99.6 ± 0.8 % of Control,99.3 ± 2.1 % of Control,–
O=C1c2cc(NS(=O)(=O)c3ccccc3OC(F)(F)F)ccc2-n2c1nc1ccccc1c2=O [4n],5.92 ± 0.56 µM,4.93 ± 0.35 µM,46.53 ± 1.2 % of Control,52.84 ± 1.8 % of Control,99.9 ± 0.7 % of Control,99.7 ± 1.8 % of Control,–
O=C1c2cc(NS(=O)(=O)c3ccccc3C(F)(F)F)ccc2-n2c1nc1ccccc1c2=O [4o],2.45 ± 0.25 µM,8.61 ± 1.2 µM,42.32 ± 0.7 % of Control,50.5 ± 0.5 % of Control,99.6 ± 2.7 % of Control,98.2 ± 1.7 % of Control,3.5
O=C1c2cc(NS(=O)(=O)c3c(Cl)cccc3Cl)ccc2-n2c1nc1ccccc1c2=O [4p],0.62 ± 0.09 µM,> 50 µM,48.49 ± 4.5 % of Control,65.6 ± 2.2 % of Control,99.6 ± 2.7 % of Control,99.3 ± 2.9 % of Control,–
O=C1c2ccccc2-n2c1nc1ccc(NS(=O)(=O)c3ccccc3)cc1c2=O [8a],14 ± 1.67 µM,> 50 µM,39.65 ± 3.1 % of Control,50.98 ± 1.8 % of Control,100.1 ± 1.5 % of Control,99.8 ± 1.7 % of Control,–
Cc1ccc(S(=O)(=O)Nc2ccc3nc4n(c(=O)c3c2)-c2ccccc2C4=O)cc1 [8b],4.55 ± 0.8 µM,> 50 µM,42.01 ± 1.7 % of Control,51.37 ± 2.1 % of Control,101.2 ± 3.1 % of Control,99.8 ± 2.4 % of Control,–
CC(C)(C)c1ccc(S(=O)(=O)Nc2ccc3nc4n(c(=O)c3c2)-c2ccccc2C4=O)cc1 [8c],15.8 ± 2.6 µM,> 50 µM,39.10 ± 4.5 % of Control,49.64 ± 4.1 % of Control,98.4 ± 1.9 % of Control,96.7 ± 1.9 % of Control,–
CC(C)c1cc(C(C)C)c(S(=O)(=O)Nc2ccc3nc4n(c(=O)c3c2)-c2ccccc2C4=O)c(C(C)C)c1 [8d],> 50 µM,> 50 µM,39.65 ± 5.2 % of Control,53.26 ± 1.4 % of Control,99.8 ± 0.7 % of Control,98.7 ± 2.6 % of Control,–
O=C1c2ccccc2-n2c1nc1ccc(NS(=O)(=O)c3ccc(Br)cc3)cc1c2=O [8e],> 50 µM,> 50 µM,41.78 ± 1.2 % of Control,55.86 ± 0.9 % of Control,99.8 ± 0.7 % of Control,99.7 ± 3.1 % of Control,–
"O=c1c(O)c(-c2ccc(O)c(O)c2)oc2cc(O)cc(O)c12 [Quercetin, reference compound]",–,–,55.21 ± 1.6 % of Control,63.27 ± 2.1 % of Control,99.6 ± 1.1 % of Control,99.5 ± 1.3 % of Control,–
